According to patent publication US20020165130A1, “Method of sensitizing microbial cells to antimicrobial compounds” (priority 1998, published 2002):
Read-outs that look alike come from different tables or passages of the source.

Tests used:
[1] = tested on: Staphylococcus aureus ATCC 6538; assay: Antibiotic disc assay (zones of inhibition), S. aureus; type: cell-based; conditions: for zone size, ciprofloxacin 5 μg disc: terpenoid at 0.5 mM in agar overlay
Protocol: (§1) Erwinia sp. #351 was from Presque Isle Cultures, Presque Isle, Pa. Lactobacillus fermentum ATCC 14931, zygosaccharomyces bailii ATCC 60483 and E. coli ATCC 25922 (National Committee on Clinical Laboratory Standards antibiotic test strain) were from the American Type Culture Collection, Manassas, Va. Staphylococcus aureus ATCC 6538 and Enterococcus faecalis Bact. 4025 were obtained from the UW-Madison Department of Bacteriology culture collection. All bacteria except for L. fermentum were grown statically in screwcap tubes containing 10 ml Trypticase Soy Broth (BBL, Cockeysville, Md.) for 20-22 hours at 30° C. L. fermentum was grown statically in screwcap tubes containing 10 ml MRS broth (Difco) for 20-22 hours at 30° C. Cultures of Z. bailii were grown in 125 ml culture flasks containing 50 ml YM broth (Difco) on a rotary shaker set at 200 rpm for 20-22 hours at 25° C.
(§2) The activity of terpenoid compounds toward facilitating susceptibility to antibiotics was assessed using an antibiotic disc assay. For this assay, cells from an overnight growth were suspended to a known concentration in 0.5 ml 67 mM phosphate buffer, pH 7.0 and mixed with 4.5 ml 0.7% Iso-Sensitest agar (Oxoid, Basingstoke, Hampshire, England) overlay tempered to 50° C. Terpenoid compounds dissolved in absolute ethanol were added to the cell/agar overlay mixture yielding final concentrations of 0.5, 1.0 or 2.0 mM, depending on the experiment. The final concentration of ethanol in cell overlays was 0.5% and the final concentration of target cells was ca. 10^6 cfu/ml. After thorough vortexing, terpenoid-containing cell overlays were poured over hardened Iso-Sensitest agar (2% agar) plates and allowed to set. […] After incubation, zones of inhibition were measured with a ruler from the bottom of the plates.

[2] = tested on: Enterococcus faecalis Bact. 4025; type: cell-based; conditions: E. faecalis
Protocol: as §1, §2

[3] = antibiotic disc with 0.5 mM apritone (A) in agar overlay
[4] = antibiotic disc with 0.5 mM bisabolol (B) in agar overlay
[5] = antibiotic disc with 0.5 mM nerolidol (N) in agar overlay
[6] = antibiotic disc with 1 mM apritone (A) in agar overlay
[7] = antibiotic disc with 1 mM bisabolol (B) in agar overlay
[8] = antibiotic disc with 1 mM nerolidol (N) in agar overlay
[9] = antibiotic disc with 2 mM apritone (A) in agar overlay
[10] = antibiotic disc with 2 mM bisabolol (B) in agar overlay
[11] = antibiotic disc with 2 mM nerolidol (N) in agar overlay
[12] = antibiotic disc, control (no sesquiterpenoid in agar overlay)
[13] = antibiotic disc, control (no sesquiterpenoid)

## C=C1C2CCC(C2)C1(C)C (stereo not shown) [camphene]
[1]
  zone size, ciprofloxacin 5 μg disc: 22 mm

## CC12CCC(CC1)C(C)(C)O2 [cineole]
[1]
  zone size, ciprofloxacin 5 μg disc: 23 mm

## CC(C)=CCCC(C)=CC=O [citral]
[1]
  zone size, ciprofloxacin 5 μg disc: 22 mm

## CC(C)=CCCC(C)CC=O (stereo not shown) [citronellal]
[1]
  zone size, ciprofloxacin 5 μg disc: 22 mm

## CC(C)=CCCC(C)CCO (stereo not shown) [citronellol]
[1]
  zone size, ciprofloxacin 5 μg disc: 22.5 mm

## CCC[C@@H]1C[C@@H](C(=O)N[C@@H]([C@H]2O[C@H](SC)[C@H](O)[C@@H](O)[C@H]2O)[C@H](C)Cl)N(C)C1 [clindamycin]
[1]; [3]
  Diameters of zones of inhibition: 22 millimeters
[1]; [4]
  Diameters of zones of inhibition: 24.5 millimeters
[1]; [5]
  Diameters of zones of inhibition: 23.5 millimeters
[1]; [6]
  Diameters of zones of inhibition: 25 millimeters
[1]; [7]
  Diameters of zones of inhibition: 27 millimeters
[1]; [8]
  Diameters of zones of inhibition: 31.5 millimeters
[1]; [9]
  Diameters of zones of inhibition: 27.5 millimeters
[1]; [10]
  Diameters of zones of inhibition: 32 millimeters
[1]; [11]
  Diameters of zones of inhibition: 35.5 millimeters
[1]; [12]
  Diameters of zones of inhibition: 22 millimeters
[2]; [6]
  Diameters of zones of inhibition: 12 millimeters
[2]; [7]
  Diameters of zones of inhibition: 11 millimeters
[2]; [8]
  Diameters of zones of inhibition: 11 millimeters
[2]; [13]
  Diameters of zones of inhibition: 12 millimeters

## CC[C@H]1OC(=O)[C@H](C)[C@@H](O[C@H]2C[C@@](C)(OC)[C@@H](O)[C@H](C)O2)[C@H](C)[C@@H](O[C@@H]2O[C@H](C)C[C@H](N(C)C)[C@H]2O)[C@](C)(O)C[C@@H](C)C(=O)[C@H](C)[C@@H](O)[C@]1(C)O [erythromycin]
[1]; [3]
  Diameters of zones of inhibition: 26 millimeters
[1]; [4]
  Diameters of zones of inhibition: 26 millimeters
[1]; [5]
  Diameters of zones of inhibition: 27 millimeters
[1]; [6]
  Diameters of zones of inhibition: 25 millimeters
[1]; [7]
  Diameters of zones of inhibition: 29 millimeters
[1]; [8]
  Diameters of zones of inhibition: 29.5 millimeters
[1]; [9]
  Diameters of zones of inhibition: 26.5 millimeters
[1]; [10]
  Diameters of zones of inhibition: 30 millimeters
[1]; [11]
  Diameters of zones of inhibition: 33 millimeters
[1]; [12]
  Diameters of zones of inhibition: 24 millimeters
[2]; [6]
  Diameters of zones of inhibition: 18 millimeters
[2]; [7]
  Diameters of zones of inhibition: 19 millimeters
[2]; [8]
  Diameters of zones of inhibition: 19.5 millimeters
[2]; [13]
  Diameters of zones of inhibition: 18.5 millimeters

## CC(C)=CCC/C(C)=C/CO [geraniol]
[1]
  zone size, ciprofloxacin 5 μg disc: 23 mm

## C=C(C)[C@H]1CC=C(C)CC1 [limonene]
[1]
  zone size, ciprofloxacin 5 μg disc: 22 mm

## C=CC(C)(O)CCC=C(C)C (stereo not shown) [linalool]
[1]
  zone size, ciprofloxacin 5 μg disc: 22.5 mm

## CC(C)[C@@H]1CC[C@@H](C)CC1=O [menthone]
[1]
  zone size, ciprofloxacin 5 μg disc: 23 mm

## C=CC(=C)CCC=C(C)C [myrcene]
[1]
  zone size, ciprofloxacin 5 μg disc: 21.5 mm

## CC(C)=CCC/C(C)=C\CO [nerol]
[1]
  zone size, ciprofloxacin 5 μg disc: 22 mm

## CN(C)[C@@H]1C(O)=C(C(N)=O)C(=O)[C@@]2(O)C(O)=C3C(=O)c4c(O)cccc4[C@@](C)(O)[C@H]3C[C@@H]12 [tetracycline]
[1]; [3]
  Diameters of zones of inhibition: 25.5 millimeters
[1]; [4]
  Diameters of zones of inhibition: 25 millimeters
[1]; [5]
  Diameters of zones of inhibition: 25.5 millimeters
[1]; [6]
  Diameters of zones of inhibition: 26 millimeters
[1]; [7]
  Diameters of zones of inhibition: 26 millimeters
[1]; [8]
  Diameters of zones of inhibition: 26.5 millimeters
[1]; [9]
  Diameters of zones of inhibition: 27.5 millimeters
[1]; [10]
  Diameters of zones of inhibition: 30 millimeters
[1]; [11]
  Diameters of zones of inhibition: 32.5 millimeters
[1]; [12]
  Diameters of zones of inhibition: 21.5 millimeters
[2]; [6]
  Diameters of zones of inhibition: 22.5 millimeters
[2]; [7]
  Diameters of zones of inhibition: 24 millimeters
[2]; [8]
  Diameters of zones of inhibition: 23.5 millimeters
[2]; [13]
  Diameters of zones of inhibition: 22 millimeters

## CC(C)CCCC(C)CCO (stereo not shown) [tetrahydrogeraniol]
[1]
  zone size, ciprofloxacin 5 μg disc: 22.5 mm

## CCC(C)(O)CCCC(C)C (stereo not shown) [tetrahydrolinalool]
[1]
  zone size, ciprofloxacin 5 μg disc: 23 mm

## CN[C@H](CC(C)C)C(=O)N[C@H]1C(=O)N[C@@H](CC(N)=O)C(=O)N[C@H]2C(=O)N[C@H]3C(=O)N[C@H](C(=O)N[C@H](C(=O)O)c4cc(O)cc(O)c4-c4cc3ccc4O)[C@H](O)c3ccc(c(Cl)c3)Oc3cc2cc(c3O[C@@H]2O[C@H](CO)[C@@H](O)[C@H](O)[C@H]2O[C@H]2C[C@](C)(N)[C@H](O)[C@H](C)O2)Oc2ccc(cc2Cl)[C@H]1O [vancomycin]
[1]; [3]
  Diameters of zones of inhibition: 19 millimeters
[1]; [4]
  Diameters of zones of inhibition: 20 millimeters
[1]; [5]
  Diameters of zones of inhibition: 20 millimeters
[1]; [6]
  Diameters of zones of inhibition: 18 millimeters
[1]; [7]
  Diameters of zones of inhibition: 19 millimeters
[1]; [8]
  Diameters of zones of inhibition: 23.5 millimeters
[1]; [9]
  Diameters of zones of inhibition: 20 millimeters
[1]; [10]
  Diameters of zones of inhibition: 21 millimeters
[1]; [11]
  Diameters of zones of inhibition: 25 millimeters
[1]; [12]
  Diameters of zones of inhibition: 18 millimeters
[2]; [6]
  Diameters of zones of inhibition: 17 millimeters
[2]; [7]
  Diameters of zones of inhibition: 18 millimeters
[2]; [8]
  Diameters of zones of inhibition: 18 millimeters
[2]; [13]
  Diameters of zones of inhibition: 17 millimeters

## CC1=CC=C(C(C)C)CC1 [α-terpinene]
[1]
  zone size, ciprofloxacin 5 μg disc: 22 mm

## gentamicin
[1]; [3]
  Diameters of zones of inhibition: 20 millimeters
[1]; [4]
  Diameters of zones of inhibition: 22 millimeters
[1]; [5]
  Diameters of zones of inhibition: 24 millimeters
[1]; [6]
  Diameters of zones of inhibition: 21 millimeters
[1]; [8]
  Diameters of zones of inhibition: 26 millimeters
[1]; [9]
  Diameters of zones of inhibition: 23 millimeters
[1]; [10]
  Diameters of zones of inhibition: 29 millimeters
[1]; [11]
  Diameters of zones of inhibition: 35 millimeters
[1]; [12]
  Diameters of zones of inhibition: 18.5 millimeters
[2]; [6]
  Diameters of zones of inhibition: 11 millimeters
[2]; [8]
  Diameters of zones of inhibition: 17.5 millimeters
[2]; [13]
  Diameters of zones of inhibition: 9 millimeters
